Source: patent EP0626016B1, “[…] […]” (BRITISH TECHNOLOGY GROUP LIMITED, priority 1992, dated 1993)

What was measured:
HRP Type VIA = molecular target: T1, HRP Type VIA (Armoracia rusticana, UniProt P00433)
T1 sequence (P00433 31-338): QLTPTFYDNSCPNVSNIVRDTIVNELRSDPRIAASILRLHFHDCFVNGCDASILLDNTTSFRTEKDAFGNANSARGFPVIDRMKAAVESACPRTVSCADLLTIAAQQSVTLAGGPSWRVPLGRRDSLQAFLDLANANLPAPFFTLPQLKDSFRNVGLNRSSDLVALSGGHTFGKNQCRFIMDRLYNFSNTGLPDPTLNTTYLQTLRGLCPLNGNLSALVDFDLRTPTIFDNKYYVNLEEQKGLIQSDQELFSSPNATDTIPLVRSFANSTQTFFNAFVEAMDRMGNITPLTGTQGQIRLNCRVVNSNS

[1] = molecular target: T2, horseradish peroxidase Type VIA (Armoracia rusticana, UniProt P00433); assay: Enhanced chemiluminescent assay for peroxide with 4-biphenylboronic acid (Example 8a); type: biochemical; details: 10µl enhancer (1:20 dilution of 1mg/ml)
T2 construct: purchased Sigma Chemical Co
T2 sequence (P00433 31-338): T1 sequence (P00433 31-338)
Procedure: The assay reagent consisted of the following reagents: 10µl 4-biphenylboronic acid (1:20 dilution of a 1mg/ml stock in DMSO), 10µl horseradish peroxidase (1:500,000 dilution of a 1mg/ml stock Type VIA in 0.1 mol/l Tris buffer pH 8.6) and 100µl luminol (0.025 g/l in 0.1 mol/l Tris buffer pH 8.6). These were mixed together and the light emission measured. A 10µl sample of a hydrogen peroxide solution (dilutions of a stock, 31µl 30% w/v hydrogen peroxide/ml in Tris buffer) was added, the contents of the assay tube mixed and the light emission recorded.
From Table 9 it can be seen that there was a dose-dependent increase in light output up to 2.4µmoles of peroxide.

[2] = molecular target: T2, horseradish peroxidase Type VIA; assay: Enhanced chemiluminescent assay for luminol with 4-biphenylboronic acid (Example 8b); type: biochemical; details: 10µl enhancer (1:20 dilution of 1mg/ml)
Procedure: The assay reagent consisted of the following reagents: 10µl 4-biphenylboronic acid (1:20 dilution of a 1mg/ml stock in DMSO), 10µl horseradish peroxidase (1:500,000 dilution of a lmg/ml stock Type VIA in 0.1 mol/l Tris buffer pH 8.6) and 100µl hydrogen peroxide solution (31µl 30% w/v hydrogen peroxide diluted in 100ml Tris buffer). These were mixed together and the light emission measured. A 10µl sample of a luminol solution (dilutions of a 0.25g/l in 0.1 mol/l Tris buffer pH 8.6 stock) was added, the contents of the assay tube mixed and the light emission recorded.
From Table 10 it can be seen that there was a dose-dependent increase in light output at all concentrations of luminol tested.

OB(O)c1ccc(-c2ccccc2)cc1 [Compound 1011, 4-biphenylboronic acid]
(a) Decrease in background (without HRP with test cpd.) (HRP Type VIA): Y
(b) Increase in signal (with HRP, with test cpd.) (HRP Type VIA): Y
(c) Increase in signal: background ratio (HRP Type VIA): Y (key: Column (c) shows whether there was an increase in the signal:background ratio by over 25% of the control value (Y = yes; N = no)
Light emission at 5 minutes ([1]; Hydrogen peroxide 0 µmoles): 525
Light emission at 5 minutes ([1]; Hydrogen peroxide 0.00024 µmoles): 659
Light emission at 5 minutes ([1]; Hydrogen peroxide 0.0024 µmoles): 1,500
Light emission at 5 minutes ([1]; Hydrogen peroxide 0.024 µmoles): 40,682
Light emission at 5 minutes ([1]; Hydrogen peroxide 0.24 µmoles): 584,638
Light emission at 5 minutes ([1]; Hydrogen peroxide 2.4 µmoles): 620,551
Light emission at 5 minutes ([1]; Hydrogen peroxide 24 µmoles): 339,291
Light emission at 10 minutes ([2]; Luminol 0 µmoles): 54
Light emission at 10 minutes ([2]; Luminol 0.00125 µmoles): 145
Light emission at 10 minutes ([2]; Luminol 0.0125 µmoles): 620
Light emission at 10 minutes ([2]; Luminol 0.125 µmoles): 5,161
Light emission at 10 minutes ([2]; Luminol 1.25 µmoles): 55,873
Light emission at 10 minutes ([2]; Luminol 12.5 µmoles): 358,184
Light emission at 10 minutes ([2]; Luminol 125 µmoles): 834,089
